From the supplement of paper PMC10307832

What was measured:
Assay in all cases: relative viability (nuclei count vs DMSO), 5 days (fraction); higher = more cells survive
Carboplatin + Navitoclax = compound: C1CC(C1)(C(=O)O)C(=O)O.[NH2-].[NH2-].[Pt+2] [Carboplatin] + CC1(C)CCC(c2ccc(Cl)cc2)=C(CN2CCN(c3ccc(C(=O)NS(=O)(=O)c4ccc(N[C@H](CCN5CCOCC5)CSc5ccccc5)c(S(=O)(=O)C(F)(F)F)c4)cc3)CC2)C1 [Navitoclax] (partner 0.5 µM)
In short: (§1)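 Five library-drug doses in √10 steps were combined with a fixed anchor-drug dose, or a single drug was given alone, by pin tool to lung cancer cell lines in 1536-well plates the day after seeding. Nuclei were stained and counted after 5 days. Relative viability is the nuclei count in treated wells over that in vehicle wells, taken as the median of duplicate plates.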

GSK126 + Palbociclib = compound: CC[C@H](C)N1C=C(C2=C(C=C(C=C21)C3=CN=C(C=C3)N4CCNCC4)C(=O)NCC5=C(C=C(NC5=O)C)C)C [GSK126] + CC(=O)c1c(C)c2cnc(Nc3ccc(N4CCNCC4)cn3)nc2n(C2CCCC2)c1=O [Palbociclib] (partner 0.5 µM)
In short: as §1

GSK126 + Navitoclax = compound: CC[C@H](C)N1C=C(C2=C(C=C(C=C21)C3=CN=C(C=C3)N4CCNCC4)C(=O)NCC5=C(C=C(NC5=O)C)C)C [GSK126] + CC1(C)CCC(c2ccc(Cl)cc2)=C(CN2CCN(c3ccc(C(=O)NS(=O)(=O)c4ccc(N[C@H](CCN5CCOCC5)CSc5ccccc5)c(S(=O)(=O)C(F)(F)F)c4)cc3)CC2)C1 [Navitoclax] (partner 0.5 µM)
In short: as §1

MLN4924 + Pemetrexed = compound: NS(=O)(=O)OC[C@@H]1C[C@@H](n2ccc3c(N[C@H]4CCc5ccccc54)ncnc32)C[C@@H]1O [MLN4924] + Nc1nc2[nH]cc(CCc3ccc(C(=O)N[C@@H](CCC(=O)O)C(=O)O)cc3)c2c(=O)[nH]1 [Pemetrexed] (partner 0.2 µM)
In short: as §1

| Cell Line | relative viability (Carboplatin + Navitoclax; first compound 0.08 µM) | relative viability (Carboplatin + Navitoclax; first compound 0.253 µM) | relative viability (Carboplatin + Navitoclax; first compound 0.8 µM) | relative viability (Carboplatin + Navitoclax; first compound 2.53 µM) | relative viability (Carboplatin + Navitoclax; first compound 8 µM) | relative viability (GSK126 + Palbociclib; first compound 0.08 µM) | relative viability (GSK126 + Palbociclib; first compound 0.253 µM) | relative viability (GSK126 + Palbociclib; first compound 0.8 µM) | relative viability (GSK126 + Palbociclib; first compound 2.53 µM) | relative viability (GSK126 + Palbociclib; first compound 8 µM) | relative viability (GSK126 + Navitoclax; first compound 0.08 µM) | relative viability (GSK126 + Navitoclax; first compound 0.253 µM) | relative viability (GSK126 + Navitoclax; first compound 0.8 µM) | relative viability (GSK126 + Navitoclax; first compound 2.53 µM) | relative viability (GSK126 + Navitoclax; first compound 8 µM) | relative viability (MLN4924 + Pemetrexed; first compound 0.04 µM) | relative viability (MLN4924 + Pemetrexed; first compound 0.1265 µM) | relative viability (MLN4924 + Pemetrexed; first compound 0.4 µM) | relative viability (MLN4924 + Pemetrexed; first compound 1.265 µM) | relative viability (MLN4924 + Pemetrexed; first compound 4 µM) |
| --- | --- | --- | --- | --- | --- | --- | --- | --- | --- | --- | --- | --- | --- | --- | --- | --- | --- | --- | --- | --- |
| NCI-H1755 | 1.02 | 1.01 | 1.04 | 1.02 | 0.891 | 0.465 | 0.394 | 0.458 | 0.43 | 0.445 | 1.07 | 0.996 | 0.999 | 0.997 | 0.969 | 0.378 | 0.268 | 0.282 | 0.178 | 0.186 |
| A-427 | 0.973 | 0.941 | 0.953 | 0.908 | 0.964 | 0.534 | 0.519 | 0.517 | 0.5 | 0.491 | 1.04 | 1 | 0.836 | 0.959 | 0.845 | 0.611 | 0.466 | 0.333 | 0.247 | 0.273 |
| SW 1573 | 0.91 | 1.03 | 0.922 | 1.1 | 0.543 | 0.496 | 0.472 | 0.435 | 0.361 | 0.403 | 0.894 | 0.955 | 1.2 | 1.06 | 1.07 | 0.899 | 0.901 | 0.249 | 0.0884 | 0.0765 |
| PC-14 | 0.991 | 0.974 | 0.985 | 0.918 | 0.566 | 0.517 | 0.505 | 0.539 | 0.566 | 0.469 | 1.04 | 0.998 | 1.02 | 0.95 | 0.804 | 0.157 | 0.128 | 0.0989 | 0.0654 | 0.0612 |
| LOU-NH91 | 0.831 | 0.642 | 0.667 | 0.706 | 0.624 | 0.449 | 0.541 | 0.523 | 0.536 | 0.57 | 0.732 | 0.656 | 0.68 | 0.751 | 0.706 | 0.367 | 0.366 | 0.393 | 0.385 | 0.343 |
| BEN | 0.0584 | 0.0591 | 0.0635 | 0.0642 | 0.0703 | 0.482 | 0.41 | 0.5 | 0.506 | 0.473 | 0.0742 | 0.0598 | 0.0517 | 0.0958 | 0.0522 | 0.602 | 0.884 | 0.455 | 0.28 | 0.227 |
| NCI-H2085 | 1.25 | 1.09 | 1.09 | 1.05 | 1.09 | 0.477 | 0.456 | 0.466 | 0.453 | 0.47 | 1.16 | 1.12 | 1.19 | 1.09 | 1.19 | 0.916 | 0.91 | 0.888 | 0.882 | 0.451 |
| NCI-H1792 | 0.887 | 0.682 | 0.667 | 0.618 | 0.567 | 0.642 | 0.627 | 0.659 | 0.661 | 0.629 | 0.733 | 0.644 | 0.655 | 0.664 | 0.658 | 0.776 | 0.672 | 1.35 | 0.296 | 0.195 |
| H3255 | 0.658 | 0.563 | 0.634 | 0.471 | 0.476 | 0.291 | 0.316 | 0.319 | 0.296 | 0.31 | 0.591 | 0.606 | 0.5 | 0.522 | 0.505 | 0.603 | 0.577 | 0.396 | 0.263 | 0.308 |
| EMC-BAC-2 | 1.24 | 1.11 | 1.16 | 1.12 | 1.02 | 0.519 | 0.515 | 0.516 | 0.503 | 0.499 | 1.09 | 1.18 | 1.14 | 1.18 | 1.23 | 0.491 | 0.537 | 0.42 | 0.255 | 0.277 |
| NCI-H1666 | 1.04 | 1.12 | 0.745 | 0.853 | 0.641 | 0.642 | 0.613 | 0.6 | 0.636 | 0.692 | 1.08 | 0.982 | 1.02 | 0.833 | 1.12 | 0.734 | 0.742 | 0.645 | 0.409 | 0.488 |
| HCC-366 | 1.08 | 1.12 | 1.13 | 1.02 | 0.753 | 0.391 | 0.399 | 0.425 | 0.407 | 0.374 | 1.17 | 1.02 | 1.09 | 1.12 | 1.05 | 0.161 | 0.153 | 0.129 | 0.107 | 0.0292 |
| LCLC-97TM1 | 0.401 |  | 0.424 | 0.391 | 0.33 | 0.283 | 0.265 | 0.232 | 0.308 | 0.255 | 0.587 |  | 0.379 | 0.525 | 0.798 | 0.147 | 0.18 | 0.0833 | 0.0476 | 0.0536 |
| NCI-H2405 | 0.869 | 0.862 | 0.639 | 0.629 | 0.62 | 0.586 | 0.507 | 0.537 | 0.557 | 0.523 | 0.76 | 0.708 | 0.805 | 0.895 | 0.552 | 0.806 | 0.863 | 0.44 | 0.187 | 0.193 |
| NCI-H1915 | 0.795 | 0.751 | 0.745 | 0.752 | 0.579 | 0.554 | 0.496 | 0.516 | 0.56 | 0.583 | 0.83 | 0.789 | 0.786 | 0.789 | 0.786 | 0.625 | 0.66 | 0.479 | 0.144 | 0.176 |
| NCI-H1650 | 1.33 | 1.11 | 1.13 | 1.07 | 0.726 | 0.393 | 0.359 | 0.37 | 0.377 | 0.32 | 1.33 | 1.19 | 1.1 | 1.12 | 1.06 | 0.377 | 0.471 | 0.248 | 0.168 | 0.185 |
